Measurements reported in patent US8673919B2, “Dihydropyridin sulfonamides and dihydropyridin sulfamides as MEK inhibitors” (Ardea Biosciences, Inc., priority 2009, dated 2014).

What was measured:
MEK1 = biological target: T1, MEK1 (Homo sapiens, UniProt Q02750); assay: MEK1 Activation Kinase Assay (HTRF; Cot1 phosphorylation of GST-MEK1); type: biochemical; conditions: activation of GST-MEK1 by Cot1, HTRF, 10 min pre-incubation, 20 min reaction at 22° C.
T1 construct: purchased Millipore 14-420
T1 sequence (Q02750 whole entry): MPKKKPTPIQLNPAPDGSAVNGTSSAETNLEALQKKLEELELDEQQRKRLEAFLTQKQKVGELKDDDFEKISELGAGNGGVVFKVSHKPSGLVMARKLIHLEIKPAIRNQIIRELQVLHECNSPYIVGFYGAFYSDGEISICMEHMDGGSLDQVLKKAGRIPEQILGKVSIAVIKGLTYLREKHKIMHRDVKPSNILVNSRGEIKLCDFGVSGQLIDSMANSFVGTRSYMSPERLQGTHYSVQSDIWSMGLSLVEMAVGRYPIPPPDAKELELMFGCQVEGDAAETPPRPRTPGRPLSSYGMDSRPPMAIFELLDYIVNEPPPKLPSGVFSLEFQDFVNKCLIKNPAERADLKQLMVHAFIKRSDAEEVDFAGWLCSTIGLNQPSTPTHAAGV
Text: The kinase Cot1 activates MEK1 by phosphorylating its activation loop. The inhibitory activity of compounds of the present invention on this activation of MEK1 was quantified employing the HTRF assay described in the following paragraphs.
N-terminally His6-tagged recombinant kinase domain of the human Cot1 (amino acids 30-397, purchased from Millipore, cat. no 14-703) expressed in insect cells (SF21) and purified by Ni-NTA affinity chromatography was used as kinase. As substrate for the kinase reaction the unactive C-terminally His6-tagged GST-MEK1 fusion protein (Millipore cat. no 14-420) was used.
For the assay 50 nl of a 100 fold concentrated solution of the test compound in DMSO was pipetted into a black low volume 384 well microtiter plate (Greiner Bio-One, Frickenhausen, Germany), 3 μl of a solution of 24 nM GST-MEK1 and 166.7 μM adenosine-tri-phosphate (ATP) in assay buffer [50 mM Tris/HCl pH 7.5, 10 mM MgCl2, 2 mM dithiothreitol, 0.01% (v/v) Igepal CA 630 (Sigma), 5 mM β-phospho-glycerol] were added and the mixture was incubated for 10 min at 22° C. to allow pre-binding of the test compounds to the GST-MEK1 before the start of the kinase reaction. Then the kinase reaction was started by the addition of 2 μl of a solution of Cot1 in assay buffer and the resulting mixture was incubated for a reaction time of 20 min at 22° C. The concentration of Cot1 in the assay was adjusted depending of the activity of the enzyme lot and was chosen appropriate to have the assay in the linear range, typical enzyme concentrations were in the range of about 2 ng/μl (final conc. in the 5 μl assay volume). The reaction was stopped by the addition of 5 μl of a solution of HTRF detection reagents (13 nM anti GST-XL665 [#61 GSTXLB, Fa. Cis Biointernational, Marcoule, France], 1 nM Eu-cryptate labelled anti-phospho-MEK 1/2 (Ser217/221) [#61P17KAZ, Fa. Cis Biointernational],) in an aqueous EDTA-solution (100 mM EDTA, 500 mM KF, 0.2% (w/v) bovine serum albumin in 100 mM HEPES/NaOH pH 7.5).
The resulting mixture was incubated 2 h at 22° C. to allow the binding of the phosphorylated GST-MEK1 to the anti-GST-XL665 and the Eu-cryptate labelled anti-phospho-MEK 1/2 antibody. Subsequently the amount of Ser217/Ser221-phosphorylated substrate was evaluated by measurement of the resonance is energy transfer from the Eu-Cryptate-labelled anti-phospho-MEK antibody to the anti-GST-XL665. Therefore, the fluorescence emissions at 620 nm and 665 nm after excitation at 350 nm was measured in a HTRF reader, e.g. a Rubystar (BMG Labtechnologies, Offenburg, Germany) or a Viewlux (Perkin-Elmer). The ratio of the emissions at 665 nm and at […] was taken as the measure for the amount of phosphorylated substrate. The data were normalised (enzyme reaction without inhibitor=0% inhibition, all other assay components but no enzyme=100% inhibition).

A375 cells = assay: A375 Crystal Violet (CV) Proliferation Assay; type: cell-based; conditions: A375 human melanoma cells, mutant BRAF V600E, crystal violet staining, 4 days
Protocol: Cell proliferation for A375 cells [human melanoma cell line, expressing mutant BRAF V600E] was measured by crystal violet (CV) staining: Cultivated human A375 cells were plated out in a density of 1500 cells/measurement point in 200 μl of growth medium (DMEM/HAMS F12 with 10% FBS and 2 mM Glutamine) in a 96-well multititer plate. After 24 hours, the cells from a plate (zero plate) were stained with crystal violet (see below), while the medium in the other plates was replaced by fresh culture medium (200 μl) to which the test substances had been added in various concentrations (0 μM, and in the range 0.3 nM-30 μM; the final concentration of the solvent dimethyl sulphoxide was 0.5%). The cells were incubated in the presence of the test substances for 4 days. The cell proliferation was determined by staining the cells with crystal violet: the cells were fixed by adding 20 μl/measurement point of an 11% glutaraldehyde solution at room temperature for 15 min. After the fixed cells had been washed three times with water, the plates were dried at room temperature. The cells were stained by adding 100 μl/measurement point of a 0.1% crystal violet solution (pH adjusted to pH 3 by adding acetic acid). After the stained cells had been washed three times with water, the plates were dried at room temperature. The dye was dissolved by adding 100 μl/measurement point of a 10% acetic acid solution, and the extinction was determined by photometry at a wavelength of 595 nm. The percentage change in cell growth was calculated by normalizing the measurements to the extinctions of the zero point plate (=0%) and the extinction of the untreated (0 μM) cells (=100%). The IC50 values were determined by means of a 4-parameter fit using the company's own software.

HCT116 cells = assay: HCT116 Cell Titer Glo (CTG) Proliferation Assay; type: cell-based; conditions: HCT116 human colorectal cells
Protocol: (§1) HCT116 cells [human colorectal cell line, expressing […]] were plated at a density of 3000 cells/well in 96 well black-clear bottom tissue culture plates (Costar 3603 black/clear bottom) in 100 μl/well DMEM medium (DMEM/Ham's F12) with 10% Fetal Bovine Serum (FBS) and stable Glutamine incubated at 37° C. Sister wells were plated in separate plate for time zero determination. All plates were incubated overnight at 37° C. Take down time zero plate: 100 μl/well CTG solution (Promega Cell Titer Glo solution) were added to time zero wells in sister plate; the plates were mixed for 2 min on orbital shaker to ensure cell lysis, incubated for 10 minutes, luminescence was read on VICTOR3 (Perkin Elmer). Twenty-four hours after cell seeding, test compounds were diluted in 50 μl medium and were added at a final concentration range from as high 10 μM to as low […] depending on the activities of the tested compounds in serial dilutions at a final DMSO concentration of 0.4%. Cells were incubated for 72 hours at 37° C. after addition of the test compound. Then, using a Promega Cell Titer Glo Luminescent® assay kit, 100 μl microliter lysis buffer containing of the enzyme luciferase and its substrate, luciferin mixture, were added to each well and incubated for 10 min at room temperature in the dark to stabilize luminescence signal. The samples were read on VICTOR3 (Perkin Elmer) using Luminescence protocol. The percentage change in cell growth was calculated by normalizing the measurements to the extinctions of the zero point plate (=0%) and the extinction of the untreated (0 μM) cells (=100%). The IC50 values were determined by means of a 4-parameter fit using the company's own software.

A549 cells = assay: A549 Cell Titer Glo (CTG) Proliferation Assay; type: cell-based; conditions: A549 human non small cell lung cancer cells, mutant K-Ras G12S
Protocol: as §1
A549 cells [human non small cell lung cancer cell line, expressing mutant K-Ras G12S] were seeded at a density of 2000 cells/well in 96 well black-clear bottom tissue culture plates (Costar 3603 black/clear bottom) in 100 μl/well DMEM medium (DMEM/Ham's F12) with 10% Fetal Bovine Serum (FBS) and stable Glutamine incubated at 37° C. Cell Titer Glo proliferation assays for A549 cells were performed with the same protocol as described afore for HCT116 cells.

Cc1cc(NS(=O)(=O)C2(CC(O)CO)CC2)c(Nc2ccc(I)cc2F)n(C)c1=O (racemic) [Example 2, 1-(2,3-dihydroxypropyl)-N-(2-(2-fluoro-4-iodophenylamino)-1,5-dimethyl-6-oxo-1,6-dihydropyridin-3-yl)cyclopropane-1-sulfonamide] showed an IC50 (MEK1) of 11.5 nM and an IC50 (A375 cells; Homo sapiens, A-375, 96 h) of 17 nM.
With Cn1c(Nc2ccc(I)cc2F)c(NS(=O)(=O)C2(CC(O)CO)CC2)cc(F)c1=O (racemic) [Example 9, 1-(2,3-dihydroxypropyl)-N-{5-fluoro-2-[(2-fluoro-4-iodophenyl)amino]-1-methyl-6-oxo-1,6-dihydropyridin-3-yl}cyclopropanesulfonamide] the IC50 (MEK1) was 21.1 nM, the IC50 (A375 cells; Homo sapiens, A-375, 96 h) was 25.5 nM and the IC50 (HCT116 cells; Homo sapiens, HCT-116, 72 h) was 300 nM. For the same compound, the IC50 (A549 cells; Homo sapiens, A549, 72 h) was 700 nM.
With Cn1c(Nc2ccc(I)cc2F)c(NS(=O)(=O)C2(CC(O)CO)CC2)ccc1=O (single isomer, unassigned) [Example 6A, 1-(2,3-dihydroxypropyl)-N-{2-[(2-fluoro-4-iodophenyl)amino]-1-methyl-6-oxo-1,6-dihydropyridin-3-yl}cyclopropanesulfonamide] the IC50 (MEK1) was 10.4 nM, the IC50 (A375 cells) was 17.8 nM and the IC50 (HCT116 cells; 72 hours) was 119 nM. The IC50 (A549 cells; 72 hours) was 481 nM.
For Cn1c(Nc2ccc(I)cc2F)c(NS(=O)(=O)C2(CC(O)CO)CC2)ccc1=O (single isomer, unassigned) [Example 6B, 1-(2,3-dihydroxypropyl)-N-{2-[(2-fluoro-4-iodophenyl)amino]-1-methyl-6-oxo-1,6-dihydropyridin-3-yl}cyclopropanesulfonamide], the IC50 (MEK1) was 16.6 nM, the IC50 (A375 cells) was 7.74 nM and the IC50 (HCT116 cells; 72 hours) was 54.5 nM. The IC50 (A549 cells; 72 hours) was 203 nM.
In the case of Cc1cc(NS(=O)(=O)C2CC2)c(Nc2ccc(I)cc2F)n(C)c1=O [Example 1, N-(2-(2-fluoro-4-iodophenylamino)-1,5-dimethyl-6-oxo-1,6-dihydropyridin-3-yl) cyclopropanesulfonamide], the IC50 (MEK1) is reported as 12.1 nM.
Compound Cc1cc(NS(=O)(=O)C2(CCO)CC2)c(Nc2ccc(I)cc2F)n(C)c1=O [Example 3, N-(2-(2-fluoro-4-iodophenylamino)-1,5-dimethyl-6-oxo-1,6-dihydropyridin-3-yl)-1-(2-hydroxyethyl)cyclopropane-1-sulfonamide] has an IC50 (MEK1) of 8.97 nM and an IC50 (A375 cells; Homo sapiens, A-375, 96 h) of 15 nM.
In the case of Cn1c(Nc2ccc(I)cc2F)c(NS(=O)(=O)C2CC2)ccc1=O [Example 5, N-{2-[(2-fluoro-4-iodophenyl)amino]-1-methyl-6-oxo-1,6-dihydropyridin-3-yl}cyclopropanesulfonamide], the IC50 (MEK1) is reported as 9.9 nM, the IC50 (A375 cells; Homo sapiens, A-375, 96 h) is reported as 2.94 nM and the IC50 (HCT116 cells; Homo sapiens, HCT-116, 72 h) is reported as 90.1 nM. The IC50 (A549 cells; Homo sapiens, A549, 72 h) was 206 nM.
Cn1c(Nc2ccc(I)cc2F)c(NS(=O)(=O)C2(CCO)CC2)ccc1=O [Example 7, N-{2-[(2-fluoro-4-iodophenyl)amino]-1-methyl-6-oxo-1,6-dihydropyridin-3-yl}-1-(2-hydroxyethyl)cyclopropanesulfonamide] gave an IC50 (MEK1) of 8.36 nM, an IC50 (A375 cells; Homo sapiens, A-375, 96 h) of 4.7 nM and an IC50 (HCT116 cells; Homo sapiens, HCT-116, 72 h) of 117 nM. The IC50 (A549 cells; Homo sapiens, A549, 72 h) was 254 nM.
Cn1c(Nc2ccc(I)cc2F)c(NS(=O)(=O)C2CC2)cc(F)c1=O [Example 8, N-{5-fluoro-2-[(2-fluoro-4-iodophenyl)amino]-1-methyl-6-oxo-1,6-dihydropyridin-3-yl}cyclopropanesulfonamide] was tested, and the IC50 (MEK1) was 15.3 nM, the IC50 (A375 cells; Homo sapiens, A-375, 96 h) was 26.6 nM and the IC50 (HCT116 cells; Homo sapiens, HCT-116, 72 h) was 590 nM. The IC50 (A549 cells; Homo sapiens, A549, 72 h) was 930 nM.
Cn1c(Nc2ccc(I)cc2F)c(NS(=O)(=O)C2(CCO)CC2)cc(F)c1=O [Example 10, N-{5-fluoro-2-[(2-fluoro-4-iodophenyl)amino]-1-methyl-6-oxo-1,6-dihydropyridin-3-yl}-1-(2-hydroxyethyl)cyclopropanesulfonamide] showed an IC50 (MEK1) of 38.2 nM, an IC50 (A375 cells; Homo sapiens, A-375, 96 h) of 22.9 nM and an IC50 (HCT116 cells; Homo sapiens, HCT-116, 72 h) of 360 nM. The IC50 (A549 cells; Homo sapiens, A549, 72 h) was 730 nM.
